The target of this experiment is T1, RORc ligand binding domain (Homo sapiens, UniProt P51449).
T1 construct: host or cells: E. coli
T1 sequence (P51449 269-508 limits assumed): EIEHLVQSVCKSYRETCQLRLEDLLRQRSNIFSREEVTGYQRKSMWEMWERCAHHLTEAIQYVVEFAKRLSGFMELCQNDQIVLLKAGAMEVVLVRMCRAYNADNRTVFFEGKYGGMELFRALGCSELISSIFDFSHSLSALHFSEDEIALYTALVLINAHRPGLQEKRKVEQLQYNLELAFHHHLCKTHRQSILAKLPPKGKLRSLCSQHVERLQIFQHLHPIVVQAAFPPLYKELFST
Put plainly: In vitro RORc ligand binding assay (25-[3H]hydroxycholesterol displacement, filter binding). Conditions: 6 nM 25-[3H]hydroxycholesterol, 0.6 ug/mL RORc receptor, 3 h at 25° C. The procedure, abridged:
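Compounds in 5% DMSO, either dose-response or screened at 1 and 10 uM, competed with 6 nM 25-[3H]hydroxycholesterol for 0.6 ug/mL RORc over 3 h at 25° C (HEPES pH 7.4, NaCl, MgCl2, DTT, BSA buffer). Bound tracer was filter-harvested and counted; nonspecific binding came from 1 uM 25-hydroxycholesterol.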
The compound `Cn1nc([C@]23CC[C@H](c4cc(-c5c(F)cccc5F)nnc42)C3(C)C)oc1=O` [Example 263, 5-((5S,8S)-3-(2,6-difluorophenyl)-9,9-dimethyl-5,6,7,8-tetrahydro-5,8-methanocinnolin-8-yl)-3-methyl-1,3,4-oxadiazol-2(3H)-one] had an IC50 of 471 nM.

In the case of `CC1(C)[C@@H]2CC[C@@]1(C(=O)N1CC(CC#N)C1)c1nnc(-c3c(F)cccc3F)cc12` [Example 264, 2-(1-((5S,8S)-3-(2,6-difluorophenyl)-9,9-dimethyl-5,6,7,8-tetrahydro-5,8-methanocinnoline-8-carbonyl)azetidin-3-yl)acetonitrile], the IC50 came out at 307 nM.

In turn, `CN(C(=O)[C@]12CC[C@H](c3cc(-c4c(F)cccc4F)nnc31)C2(C)C)c1ccccn1` [Example 265, (5S,8S)-3-(2,6-difluorophenyl)-N,9,9-trimethyl-N-(pyridin-2-yl)-5,6,7,8-tetrahydro-5,8-methanocinnoline-8-carboxamide] showed an IC50 of 1040 nM.

Consider `Cc1nnc(N(Cc2ccccc2)C[C@@]23CC[C@@H](c4cc(-c5c(F)cccc5F)nnc42)C3(C)C)o1` [Example 266, N-benzyl-N-(((5R,8S)-3-(2,6-difluorophenyl)-9,9-dimethyl-5,6,7,8-tetrahydro-5,8-methanocinnolin-8-yl)methyl)-5-methyl-1,3,4-oxadiazol-2-amine], for which the IC50 worked out at 214 nM.

As for `COCCn1nccc1[C@@]12CC[C@@H](c3cc(-c4c(F)cccc4F)nnc31)C2(C)C` [Example 267, (5R,8S)-3-(2,6-difluorophenyl)-8-(1-(2-methoxyethyl)-1H-pyrazol-5-yl)-9,9-dimethyl-5,6,7,8-tetrahydro-5,8-methanocinnoline], the IC50 worked out at 339 nM.

In turn, `CC1(C)[C@H]2CC[C@]1(CN1CCNC1=O)c1nnc(-c3c(F)cccc3F)cc12` [Example 268, 1-(((5R,8S)-3-(2,6-difluorophenyl)-9,9-dimethyl-5,6,7,8-tetrahydro-5,8-methanocinnolin-8-yl)methyl)imidazolidin-2-one] came in with an IC50 of 321 nM.

The compound `CC1(C)[C@H]2CC[C@]1(c1ccnn1CCO)c1nnc(-c3c(F)cccc3F)cc12` [Example 269, 2-(5-((5R,8S)-3-(2,6-difluorophenyl)-9,9-dimethyl-5,6,7,8-tetrahydro-5,8-methanocinnolin-8-yl)-1H-pyrazol-1-yl)ethanol] returned an IC50 of 423 nM.

`Cc1nnc(OC(=O)[C@]23CC[C@H](c4cc(-c5c(F)cccc5F)nnc42)C3(C)C)o1` [Example 270, (5S,8S)-5-methyl-1,3,4-oxadiazol-2-yl 3-(2,6-difluorophenyl)-9,9-dimethyl-5,6,7,8-tetrahydro-5,8-methanocinnoline-8-carboxylate] returned an IC50 of 1380 nM.

In turn, `CCN(C(=O)CO)C(C)(C)[C@@]12CC[C@@H](c3cc(-c4c(F)cccc4F)nnc31)C2(C)C` [Example 271, N-(2-((5R,8S)-3-(2,6-difluorophenyl)-9,9-dimethyl-5,6,7,8-tetrahydro-5,8-methanocinnolin-8-yl)propan-2-yl)-N-ethyl-2-hydroxyacetamide] came in with an IC50 of 189 nM.

`CC1(C)[C@H]2CC[C@]1(CN(CCO)c1ncccn1)c1nnc(-c3c(F)cccc3F)cc12` [Example 272, 2-((((5R,8S)-3-(2,6-difluorophenyl)-9,9-dimethyl-5,6,7,8-tetrahydro-5,8-methanocinnolin-8-yl)methyl)(pyrimidin-2-yl)amino)ethanol]: the IC50 worked out at 124 nM.

Take `CC1(C)[C@H]2CC[C@]1(CN1CCCC1=O)c1nnc(-c3c(F)cccc3F)cc12` [Example 273, 1-(((5R,8S)-3-(2,6-difluorophenyl)-9,9-dimethyl-5,6,7,8-tetrahydro-5,8-methanocinnolin-8-yl)methyl)pyrrolidin-2-one]: the IC50 was determined as 453 nM.

With `COC(=O)N(C)[C@@]12CC[C@@H](c3cc(-c4c(F)cccc4F)nnc31)C2(C)C` [Example 274, methyl ((5R,8R)-3-(2,6-difluorophenyl)-9,9-dimethyl-5,6,7,8-tetrahydro-5,8-methanocinnolin-8-yl)(methyl)carbamate], the concentration for half-maximal inhibition (IC50) was 301 nM.

`Cn1nccc1[C@@]12CC[C@@H](c3cc(-c4c(F)cccc4F)nnc31)C2(C)C` [Example 275, (5R,8S)-3-(2,6-difluorophenyl)-9,9-dimethyl-8-(1-methyl-1H-pyrazol-5-yl)-5,6,7,8-tetrahydro-5,8-methanocinnoline]: the IC50 was 146 nM.

`CC1(C)[C@H]2CC[C@]1(c1ccnn1CCC#N)c1nnc(-c3c(F)cccc3F)cc12` [Example 276, 3-(5-((5R,8S)-3-(2,6-difluorophenyl)-9,9-dimethyl-5,6,7,8-tetrahydro-5,8-methanocinnolin-8-yl)-1H-pyrazol-1-yl)propanenitrile] had an IC50 of 466 nM.

Consider `CCOC(=O)N(CC)C[C@@]12CC[C@@H](c3cc(-c4c(F)cccc4F)nnc31)C2(C)C` [Example 277, ethyl (((5R,8S)-3-(2,6-difluorophenyl)-9,9-dimethyl-5,6,7,8-tetrahydro-5,8-methanocinnolin-8-yl)methyl)(ethyl) carbamate], for which the IC50 is 5 nM.

`CCN(C[C@@]12CC[C@@H](c3cc(-c4c(F)cccc4F)nnc31)C2(C)C)C(=O)N(C)C` [Example 278, 1-(((5R,8S)-3-(2,6-difluorophenyl)-9,9-dimethyl-5,6,7,8-tetrahydro-5,8-methanocinnolin-8-yl)methyl)-1-ethyl-3,3-dimethylurea]: the IC50 stood at 36 nM.

Consider `CC1(C)[C@H]2CC[C@]1(CN1CCOC1=O)c1nnc(-c3c(F)cccc3F)cc12` [Example 279, 3-(((5R,8S)-3-(2,6-difluorophenyl)-9,9-dimethyl-5,6,7,8-tetrahydro-5,8-methanocinnolin-8-yl)methyl)oxazolidin-2-one], for which the IC50 turned out to be 222 nM.

The compound `CN(C(=O)OC(C)(C)C)[C@]12CC[C@H](c3cc(-c4c(F)cccc4F)nnc31)C2(C)C` [Example 280, tert-butyl ((5S,8S)-3-(2,6-difluorophenyl)-9,9-dimethyl-5,6,7,8-tetrahydro-5,8-methanocinnolin-8-yl)(methyl)carbamate] gave an IC50 of 2240 nM.

Regarding `CN(C(=O)OC(C)(C)C)[C@@]12CC[C@@H](c3cc(-c4c(F)cccc4F)nnc31)C2(C)C` [Example 281, tert-butyl ((5R,8R)-3-(2,6-difluorophenyl)-9,9-dimethyl-5,6,7,8-tetrahydro-5,8-methanocinnolin-8-yl)(methyl)carbamate], the IC50 is 218 nM.

The compound `CC1(C)[C@H]2CC[C@]1(NS(C)(=O)=O)c1nnc(-c3c(F)cccc3F)cc12` [Example 282, N-((5R,8R)-3-(2,6-difluorophenyl)-9,9-dimethyl-5,6,7,8-tetrahydro-5,8-methanocinnolin-8-yl)methanesulfonamide] yielded an IC50 of 984 nM.

The compound `CC1(C)[C@H]2CC[C@]1(CN(CCO)C(N)=O)c1nnc(-c3c(F)cccc3F)cc12` [Example 283, 1-(((5R,8S)-3-(2,6-difluorophenyl)-9,9-dimethyl-5,6,7,8-tetrahydro-5,8-methanocinnolin-8-yl)methyl)-1-(2-hydroxyethyl)urea] returned a half-maximal inhibitory concentration (IC50) of 226 nM.

For `CC1(C)[C@H]2CC[C@]1(CN1CCCS1(=O)=O)c1nnc(-c3c(F)cccc3F)cc12` [Example 284, 2-(((5R,8S)-3-(2,6-difluorophenyl)-9,9-dimethyl-5,6,7,8-tetrahydro-5,8-methanocinnolin-8-yl)methyl)isothiazolidine 1,1-dioxide], the IC50 is 856 nM.

In general, IC50 refers to the concentration needed to halve the response being measured. Read a low IC50 as greater potency.
